Key:
TTR [1] = assay: TTR editing in primary cyno hepatocytes electroporated with Spy Cas9 protein and dgRNAs (Tables 10, 11); assay type: cell-based, cynomolgus monkey; conditions: primary cyno hepatocytes electroporated with Spy Cas9 protein (RNP) and cyno specific dgRNAs
Description: (§1) Primary liver hepatocytes. Primary human liver hepatocytes (PHH) and primary cynomolgus liver hepatocytes (PCH) (Gibco) were cultured per the manufacturer's protocol (Invitrogen, protocol 11.28.2012). In brief, the cells were thawed and resuspended in hepatocyte thawing medium with supplements (Gibco, Cat. CM7000) followed by centrifugation at 100 g for 10 minutes for human and 80 g for 4 minutes for cyno. The supernatant was discarded and the pelleted cells resuspended in hepatocyte plating medium plus supplement pack (Invitrogen, Cat. A1217601 and CM3000). Cells were counted and plated on Bio-coat collagen I coated 96-well plates (ThermoFisher, Cat. 877272) at a density of 33,000 cells/well for human or 60,000 cells/well for cyno (or 65,000 cells/well when assaying effects on TTR protein, described further below). Plated cells were allowed to settle and adhere for 6 or 24 hours in a tissue culture incubator at 37° C. and 5% CO2 atmosphere. After incubation cells were checked for monolayer formation and media was replaced with hepatocyte culture medium with serum-free supplement pack (Invitrogen, Cat. A1217601 and CM4000).
(§2) […] formation was performed prior to electroporation or transfection of Spy Cas9 protein loaded with guide RNAs (RNPs) onto cells. For dual guide (dgRNAs), individual crRNA and trRNA was pre-annealed by mixing equivalent amounts of reagent and incubating at 95° C. for 2 min and cooling to room temperature. Single guide (sgRNAs) were boiled at 95° C. for 2 min and cooling to room temperature. The boiled dgRNA or sgRNA was incubated with Spy Cas9 protein in Optimem for 10 minutes at room temperature to form a ribonucleoprotein (RNP) complex.
(§3) For RNP electroporation into primary human and cyno hepatocytes, the cells are thawed and resuspended in Lonza electroporation Primary Cell P3 buffer at a concentration of 2500 cells per μL for human hepatocytes and 3500 cells per μL for cyno hepatocytes. A volume of 20 μL of resuspended cells and 5 μL of RNP are mixed together per guide. 20 μL of the mixture is placed into a Lonza electroporation plate. The cells were electroporated using the Lonza nucleofector with the preset protocol EX-147. Post electroporation, the cells are transferred into a Biocoat plate containing pre-warmed maintenance media and placed in a tissue culture incubator at 37° C. and 5% CO2.
(§4) Transfected cells were harvested post-transfection at 24, 48, or 72 hours. The genomic DNA was extracted from each well of a 96-well plate using 50 μL/well BuccalAmp DNA Extraction solution (Epicentre, Cat. QE09050) per manufacturer's protocol. All DNA samples were subjected to PCR and subsequent NGS analyses, as described herein.
(§5) To quantitatively determine the efficiency of editing at the target location in the genome, sequencing was utilized to identify the presence of insertions and deletions introduced by gene editing.
(§6) Primers were designed around the target site within the gene of interest (e.g. TTR), and the genomic area of interest was amplified.
(§7) Additional PCR was performed per the manufacturer's protocols (Illumina) to add chemistry for sequencing. The amplicons were sequenced on an Illumina MiSeq instrument. The reads were aligned to a reference genome (e.g., the human reference genome (hg38), the cynomologus reference genome (mf5), the rat reference genome (rn6), or the mouse reference genome (mm10)) after eliminating those having low quality scores. The resulting files containing the reads were mapped to the reference genome (BAM files), where reads that overlapped the target region of interest were selected and the number of wild type reads versus the number of reads which contain an insertion, substitution, or deletion was calculated.
(§8) The editing percentage (e.g., the “editing efficiency” or “percent editing” or “indel frequency”) is defined as the total number of sequence reads with insertions/deletions (“indels”) or substitutions over the total number of sequence reads, including wild type. […]

TTR [2] = assay: TTR editing in HEK293_Cas9 cells transfected with dgRNAs (Table 4); assay type: cell-based, human; conditions: HEK293_Cas9 cells (constitutively express Spy Cas9) transfected with dgRNAs
Description: HEK293 Cas9 cell line. The human embryonic kidney adenocarcinoma cell line HEK293 constitutively expressing Spy Cas9 (“HEK293_Cas9”) was cultured in DMEM media supplemented with 10% fetal bovine serum and 500 μg/ml G418. Cells were plated at a density of 10,000 cells/well in a 96-well plate 24 hours prior to transfection. Cells were transfected with Lipofectamine RNAiMAX (ThermoFisher, Cat. 13778150) per the manufacturer's protocol. Cells were transfected with a lipoplex containing individual crRNA (25 nM), trRNA (25 nM), Lipofectamine RNAiMAX (0.3 μL/well) and OptiMem.
as §4, §5, §6, §7
(§9) The editing percentage (e.g., the “editing efficiency” or “percent editing” or “indel frequency”) is defined as the total number of sequence reads with insertions/deletions (“indels”) or substitutions over the total number of sequence reads, including wild type.
(§10) Guides in dgRNA format targeting human TTR and the cynomologus matched sequences were delivered to HEK293 Cas9, HUH7 and HepG2 cell lines, as well as primary human hepatocytes and primary cynomolgus monkey hepatocytes as described in Example 1. Percent editing was determined for crRNAs comprising each guide sequence across each cell type and the guide sequences were then rank ordered based on highest % edit. The screening data for the guide sequences in Table 1 in all five cell lines are listed below (Table 4 through 11).

TTR [3] = assay: TTR editing in primary human hepatocytes electroporated with Spy Cas9 protein loaded with dgRNAs (Table 7); assay type: cell-based; conditions: dgRNA electroporated with Spy Cas9 protein (RNP)
Description: as §1, §2, §3, §4, §5, §6, §7, §8

TTR [4] = assay: TTR editing in primary human hepatocytes transfected with Spy Cas9 protein (RNP) loaded with dgRNAs (Table 8); assay type: cell-based; conditions: dgRNA transfected with Spy Cas9 protein (RNP)
Description: as §1, §2
For RNP lipoplex transfections, cells were transfected with Lipofectamine RNAiMAX (ThermoFisher, Cat. 13778150) per the manufacturer's protocol. Cells were transfected with an RNP containing Spy Cas9 (10 nM), individual guide (10 nM), tracer RNA (10 nM), Lipofectamine RNAiMAX (1.0 μL/well) and OptiMem. RNP formation was performed as described above.
as §4, §5, §6, §7, §9
Guides in dgRNA format targeting human TTR and the cynomologus matched sequences were delivered to HEK293 Cas9, HUH7 and HepG2 cell lines, as well as primary human hepatocytes and primary cynomolgus monkey hepatocytes as described in Example 1. […]

TTR [5] = assay: TTR editing in HUH7 cells transfected with Spy Cas9 mRNA and dgRNAs (Table 5); assay type: cell-based, human; conditions: HUH7 cells co-transfected with Spy Cas9 mRNA (SEQ ID NO:2) and dgRNAs
Description: HUH7 cell line. The human hepatocellular carcinoma cell line HUH7 (Japanese Collection of Research Bioresources Cell Bank, Cat. JCRB0403) was cultured in DMEM media supplemented with 10% fetal bovine serum. Cells were plated on at a density of 15,000 cells/well in a 96-well plate 20 hours prior to transfection. Cells were transfected with Lipofectamine MessengerMAX (ThermoFisher, Cat. LMRNA003) per the manufacturer's protocol. Cells were sequentially transfected with a lipoplex containing Spy Cas9 mRNA (100 ng), MessengerMAX (0.3 μL/well) and OptiMem followed by a separate lipoplex containing individual crRNA (25 nM), tracer RNA (25 nM), MessengerMAX (0.3 μL/well) and OptiMem.
as §4, §5, §6, §7, §9, §10

TTR [6] = assay: TTR editing in HepG2 cells transfected with Spy Cas9 mRNA and dgRNAs (Table 6); assay type: cell-based, human; conditions: HepG2 cells co-transfected with Spy Cas9 mRNA (SEQ ID NO:2) and dgRNAs
Description: HepG2 cell line. The human hepatocellular carcinoma cell line HepG2 (American Type Culture Collection, Cat. HB-8065) was cultured in DMEM media supplemented with 10% fetal bovine serum. Cells were counted and plated on Bio-coat collagen I coated 96-well plates (ThermoFisher, Cat. 877272) at a density of 10,000 cells/well in a 96-well plate 24 hours prior to transfection. Cells were transfected with Lipofectamine 2000 (ThermoFisher, Cat. 11668019) per the manufacturer's protocol. Cells were sequentially transfected with lipoplex containing Spy Cas9 mRNA (100 ng), Lipofectamine 2000 (0.2 μL/well) and OptiMem followed by a separate lipoplex containing individual crRNA (25 nM), tracer RNA (25 nM), Lipofectamine 2000 (0.2 μL/well) and OptiMem.
as §4, §5, §6, §7, §9, §10

TTR [7] = assay: TTR editing in primary human hepatocytes transfected with Spy Cas9 mRNA and dgRNAs (Table 9); assay type: cell-based; conditions: dgRNA co-transfected with Spy Cas9 mRNA (SEQ ID NO:2)
Description: as §1
Lipofectamine RNAiMax (ThermoFisher, Cat. 13778150) based transfections were conducted as per the manufacturer's protocol. Cells were sequentially transfected with a lipoplex containing Spy Cas9 mRNA (100 ng), Lipofectamine RNAiMax (0.4 μL/well) and OptiMem followed by a separate lipoplex containing crRNA (25 nM) and tracer RNA (25 nM) or sgRNA (25 nM), Lipofectamine RNAiMax (0.4 μL/well) and OptiMem.
as §4, §5, §6, §7, §9, §10

Row | Sequence | Avg % Deletion (TTR [1]) [%] | Avg % Edit (TTR [1]) [%] | Avg % Deletion (TTR [2]) [%] | Avg % Edit (TTR [2]) [%] | Avg % Insert (TTR [2]) [%] | Avg % Deletion (TTR [3]) [%] | Avg % Edit (TTR [3]) [%] | Avg % Insert (TTR [3]) [%] | Avg % Deletion (TTR [4]) [%] | Avg % Edit (TTR [4]) [%] | Avg % Insert (TTR [4]) [%] | Avg % Deletion (TTR [5]) [%] | Avg % Edit (TTR [5]) [%] | Avg % Insert (TTR [5]) [%] | Avg % Deletion (TTR [6]) [%] | Avg % Edit (TTR [6]) [%] | Avg % Insert (TTR [6]) [%] | Avg % Deletion (TTR [7]) [%] | Avg % Edit (TTR [7]) [%] | Avg % Insert (TTR [7]) [%] | other results
1 | AAAAGGCUGCUGAUGAGACC (tested as dual guide RNA, chemistry not given here) [CR005372] | 17.16 | 17.98 |  |  |  |  |  |  |  |  |  |  |  |  |  |  |  |  |  |  | Avg % Insert (TTR [1]): 0.83%
2 | AAAGGCUGCUGAUGAGACCU (tested as dual guide RNA, chemistry not given here) [CR005364] | 27.11 | 27.70 |  |  |  |  |  |  |  |  |  |  |  |  |  |  |  |  |  |  | Avg % Insert (TTR [1]): 0.58%
3 | AAAGUUCUAGAUGCCGUCCG (tested as dual guide RNA, chemistry not given here) [CR005369] | 33.92 | 42.01 |  |  |  |  |  |  |  |  |  |  |  |  |  |  |  |  |  |  | Avg % Insert (TTR [1]): 8.09%
4 | GGCGGCAAUGGUGUAGCGGC (tested as dual guide RNA, chemistry not given here) [CR003378] |  |  | 16.48 | 20.97 | 4.49 | 0.73 | 4.60 | 3.87 | 0.42 | 8.66 | 8.24 | 32.27 | 40.73 | 9.73 | 1.34 | 8.16 | 6.82 | 1.37 | 9.80 | 8.50 | 
5 | GGGCGGCAAUGGUGUAGCGG (tested as dual guide RNA, chemistry not given here) [CR003379] |  |  | 20.98 | 26.32 | 5.34 | 0.27 | 6.57 | 6.30 | 0.34 | 16.86 | 16.51 | 16.48 | 19.18 | 3.38 | 2.04 | 19.74 | 17.70 | 1.27 | 13.20 | 12.00 | 
6 | GGGGCUCAGCAGGGCGGCAA (tested as dual guide RNA, chemistry not given here) [CR003381] |  |  | 18.23 | 22.04 | 3.82 | 0.50 | 6.20 | 5.83 | 0.27 | 7.15 | 6.88 | 99.70 | 99.70 | 1.92 | 0.63 | 6.81 | 6.18 | 0.73 | 4.07 | 3.33 | 
7 | GUAUUCACAGCCAACGACUC (tested as dual guide RNA, chemistry not given here) [CR003373] |  |  | 12.25 | 13.55 | 1.31 | 0.07 | 0.87 | 0.83 | 0.19 | 3.64 | 3.44 | 25.12 | 27.29 | 3.31 | 1.77 | 17.69 | 15.92 | 0.37 | 1.40 | 1.00 | 
8 | UGCACGGCCACAUUGAUGGC (tested as dual guide RNA, chemistry not given here) [CR003349] |  |  | 5.16 | 13.19 | 8.03 | 1.87 | 4.10 | 2.33 | 1.83 | 10.83 | 9.00 | 4.82 | 14.14 | 9.73 | 3.91 | 8.36 | 4.46 | 1.70 | 2.57 | 0.90 | 
